Measured values reported in patent US20250032506A1, “GLUCOCORTICOID RECEPTOR BLOCKADE WITH MIFEPRISTONE TO SENSITIZE PANCREATIC CANCER TO IMMUNOTHERAPY” (BOARD OF REGENTS, THE UNIVERSITY OF TEXAS SYSTEM, priority 2021, published 2025).

How the values were obtained:
HPAC cells = assay: qPCR and immunoblotting of PD-L1 and MHC-I in HPAC cells; format: cell-based, human; details: MIFE 20 μM (qPCR) or indicated doses (immunoblot), 72 h
Text: The male PDAC cell lines HY24409 and HY24160 and the female PDAC cell line HY19636 were established from KPC mice (p48-Cre; Kras^LSL-G12D/+; Trp53^loxP/+) that were backcrossed to a C57BL/6 background (purity: ˜ 98%). (See Bardeesy, N., et al. supra). The human PDAC cell lines SU86.86 ([…]), SW1990 ([…]), BXPC-3 ([…]), Miapaca-2 ([…]), Capan-1 ([…]), ASPC-1 ([…]), Hs766T ([…]), Colo357/FG ([…]), L3.6PL ([…]), Panc28 ([…]), Capan-2 ([…]), CF-Pac-1 ([…]), Panc3 (sex unknown), Panc1 ([…]), Panc48 (sex unknown), and HPAC ([…]) were from Mien-Chie Hung's lab stock. The HY24409, HY24160, HY19636, SU86.86, SW1990, and Hs766T cell lines were cultured in RPMI 1640 (Corning, 10-041-CV) supplemented with 10% fetal bovine serum (FBS) (Gibco, 10438-034) and 1% penicillin/streptomycin (Sigma, P4333). The BXPC-3, Miapaca-2, Capan-1, ASPC-1, Colo357/FG, L3.6PL, Panc28, Capan-2, CF-Pac-1, Panc3, Panc1, Panc48, and HPAC cell lines were cultured in DMEM/F-12 (Corning, 10-092-CV) supplemented with 10% FBS and 1% penicillin/streptomycin. Cells were grown in a humidified incubator with 5% CO2 at 37° C., and low-passage stocks were maintained in a centralized lab cell bank. Short tandem repeat profiling and mycoplasma tests were done by the Cytogenetics and Cell Authentication Core at MD Anderson Cancer Center. […]

HY19636 cells = assay: qPCR and flow cytometry of PD-L1, MHC-I and B2M in HY19636 cells; format: cell-based, mouse; details: MIFE 20 μM, 48 h
Text: The male PDAC cell lines HY24409 and HY24160 and the female PDAC cell line HY19636 were established from KPC mice (p48-Cre; Kras^LSL-G12D/+; Trp53^loxP/+) that were backcrossed to a C57BL/6 background (purity: ˜ 98%). (See Bardeesy, N., et al. supra). The human PDAC cell lines SU86.86 ([…]), SW1990 ([…]), BXPC-3 ([…]), Miapaca-2 ([…]), Capan-1 ([…]), ASPC-1 ([…]), Hs766T ([…]), Colo357/FG ([…]), L3.6PL ([…]), Panc28 ([…]), Capan-2 ([…]), CF-Pac-1 ([…]), Panc3 (sex unknown), Panc1 ([…]), Panc48 (sex unknown), and HPAC ([…]) were from Mien-Chie Hung's lab stock. The HY24409, HY24160, HY19636, SU86.86, SW1990, and Hs766T cell lines were cultured in RPMI 1640 (Corning, 10-041-CV) supplemented with 10% fetal bovine serum (FBS) (Gibco, 10438-034) and 1% penicillin/streptomycin (Sigma, P4333). The BXPC-3, Miapaca-2, Capan-1, ASPC-1, Colo357/FG, L3.6PL, Panc28, Capan-2, CF-Pac-1, Panc3, Panc1, Panc48, and HPAC cell lines were cultured in DMEM/F-12 (Corning, 10-092-CV) supplemented with 10% FBS and 1% penicillin/streptomycin. Cells were grown in a humidified incubator with 5% CO2 at 37° C., and low-passage stocks were maintained in a centralized lab cell bank. Short tandem repeat profiling and mycoplasma tests were done by the Cytogenetics and Cell Authentication Core at MD Anderson Cancer Center.
(§1) Immunity 54, 1561-1577 e1567 (2021).

[1] = system: orthotopic HY24409 tumors; assay: Flow cytometric analysis and multiplex immunofluorescent staining of tumors or spleens from mice treated with mifepristone and dual ICB; format: in vivo, mouse
Procedure: (§2) Cancer Discov 10, 1374-1387 (2020). […] CyTOF data were analyzed by FlowJo and Cytobank.
as §1

[2] = system: orthotopic HY24409 tumors; assay: CyTOF, flow cytometry, qPCR and multiplex immunofluorescent staining of orthotopic HY24409 tumors; format: in vivo, mouse
Procedure: as §2, §1

[3] = relative to the control group, either with or without co-treatment with dual ICB
[4] = CyTOF, orthotopic HY24409 tumors, vs vehicle or control shRNA
[5] = flow cytometric analysis, HY24409 tumors

## CC#C[C@]1(O)CC[C@H]2[C@@H]3CCC4=CC(=O)CCC4=C3[C@@H](c3ccc(N(C)C)cc3)C[C@@]21C [mifepristone]
HPAC cells
  MHC-I at both mRNA and protein levels: significantly upregulated
  PD-L1 at both mRNA and protein levels: downregulated
HY19636 cells
  MHC-I and B2M at mRNA and surface protein levels: upregulated
  PD-L1 at mRNA and surface protein levels: downregulated
[1]; flow cytometric analysis and multiplex immunofluorescent staining, HY24409 tumors
  tumor infiltration by CD8+ T cells and granzyme B+ CTLs: increase
[1]; [3]
  cell-surface MHC-I (H-2K^b) and B2M in tumor cells: increase
  cell-surface PD-L1 in tumor cells: decrease
[2]; CyTOF, orthotopic HY24409 tumors
  abundance of CD4+ T cells, regulatory T cells, natural killer cells, B cells, dendritic cells, macrophages, and myeloid-derived suppressor cells: No significant change
[2]; [4]
  increase in percentage of granzyme B+ CTLs: 1.6 fold
  increase in percentage of tumor-infiltrating CD8+ cells: 1.9 fold
[2]; [5]
  cell-surface MHC-I (H-2K^b) and B2M levels in pancreatic tumors: higher
  cell-surface PD-L1 levels in pancreatic tumors: lower
[2]; flow cytometry after ex vivo stimulation with PMA and ionomycin, HY24409 tumors
  expression levels of intracellular TNFα, IFNγ, and IL-2 in tumor-associated CD8+ cells: significantly increased
[2]; flow cytometry, CTLs in HY24409 pancreatic tumors
  surface levels of T cell exhaustion markers PD-1, Tim-3, and LAG-3: significant reduction
[2]; mifepristone-treated C57BL/6 mice, HY24409
  multiplex immunofluorescent staining of CD3, CD8, and granzyme B in pancreatic tumors: substantial enrichment
[2]; qPCR, HY24409 tumors
  mRNA levels of MHC-I components (H-2k, H-2d, and B2m) in tumors: upregulated
  mRNA levels of PD-L1 and known GR-activated target genes (Klf9, Snai2, and Fn1) in tumors: downregulated
